# Data reported in the kinase profiling compilation of Christmann-Franck et al. (2016).
# Target: MAP3K2 (human) (UniProt Q9Y2U5)
# Experiment: radiometric filter-binding kinase assay, Kinase HotSpot
# Conditions: compound 0.5 µM; ATP 10 µM
# Chain of MAP3K2 (human) (Q9Y2U5 whole entry, looked up): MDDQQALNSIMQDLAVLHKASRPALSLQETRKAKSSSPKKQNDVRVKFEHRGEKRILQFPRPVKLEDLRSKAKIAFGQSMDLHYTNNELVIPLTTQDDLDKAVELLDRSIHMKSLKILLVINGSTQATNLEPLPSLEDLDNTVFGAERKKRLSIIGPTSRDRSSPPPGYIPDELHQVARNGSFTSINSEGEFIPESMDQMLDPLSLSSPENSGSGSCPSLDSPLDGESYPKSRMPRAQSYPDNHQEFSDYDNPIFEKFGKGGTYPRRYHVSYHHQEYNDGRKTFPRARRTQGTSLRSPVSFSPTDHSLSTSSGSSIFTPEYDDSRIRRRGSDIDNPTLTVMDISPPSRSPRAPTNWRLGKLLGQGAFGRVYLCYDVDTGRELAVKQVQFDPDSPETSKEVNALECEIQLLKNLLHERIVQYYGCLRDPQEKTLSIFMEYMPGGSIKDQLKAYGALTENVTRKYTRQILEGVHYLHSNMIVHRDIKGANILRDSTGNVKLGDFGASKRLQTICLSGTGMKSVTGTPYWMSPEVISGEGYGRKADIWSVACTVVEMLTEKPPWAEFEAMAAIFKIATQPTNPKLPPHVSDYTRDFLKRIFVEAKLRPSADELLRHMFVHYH
row,Structure (SMILES),residual activity [%]
1,N#Cc1c(NC(=O)c2cccc3ccccc23)sc2c1CCCC2,84
2,COc1cc2c(N3CCN(C(=O)Nc4ccc(OC(C)C)cc4)CC3)ncnc2cc1OCCCN1CCCCC1,103
3,O=c1[nH]c2ccccc2n1C1CCN(Cc2ccc(-c3nc4cc5[nH]cnc5cc4nc3-c3ccccc3)cc2)CC1,92.4
4,O=c1c(-c2ccc(F)cc2)c(-c2ccncc2)[nH]n1-c1ccc(Cl)cc1,98.9

# Target: IRAK1 (human) (UniProt P51617)
# Sequence (P51617 whole entry, looked up): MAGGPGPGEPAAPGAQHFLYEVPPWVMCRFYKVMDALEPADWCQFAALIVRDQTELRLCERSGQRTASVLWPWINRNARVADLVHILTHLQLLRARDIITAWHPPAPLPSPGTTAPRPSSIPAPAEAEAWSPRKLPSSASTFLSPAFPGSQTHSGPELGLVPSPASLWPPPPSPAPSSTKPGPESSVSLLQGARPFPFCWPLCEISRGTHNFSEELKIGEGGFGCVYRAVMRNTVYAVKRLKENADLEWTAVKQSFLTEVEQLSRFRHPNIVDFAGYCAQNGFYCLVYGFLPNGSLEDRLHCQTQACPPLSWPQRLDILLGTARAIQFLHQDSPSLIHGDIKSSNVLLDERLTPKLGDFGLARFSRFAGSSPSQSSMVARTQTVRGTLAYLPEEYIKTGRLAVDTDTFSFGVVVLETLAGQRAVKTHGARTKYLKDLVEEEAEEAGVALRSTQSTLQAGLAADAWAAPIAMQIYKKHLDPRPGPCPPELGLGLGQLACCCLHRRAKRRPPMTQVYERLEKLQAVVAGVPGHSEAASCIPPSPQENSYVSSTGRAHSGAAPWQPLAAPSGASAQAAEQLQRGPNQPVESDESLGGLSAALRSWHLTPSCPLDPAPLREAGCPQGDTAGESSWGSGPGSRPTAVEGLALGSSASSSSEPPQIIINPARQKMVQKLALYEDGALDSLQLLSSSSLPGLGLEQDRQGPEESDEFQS
# Experiment: as above
# Conditions: compound 0.5 µM; ATP 10 µM
row,Structure (SMILES),residual activity [%]
1,N#Cc1c(NC(=O)c2cccc3ccccc23)sc2c1CCCC2,104
2,COc1cc2c(N3CCN(C(=O)Nc4ccc(OC(C)C)cc4)CC3)ncnc2cc1OCCCN1CCCCC1,96.1
3,O=c1[nH]c2ccccc2n1C1CCN(Cc2ccc(-c3nc4cc5[nH]cnc5cc4nc3-c3ccccc3)cc2)CC1,109
4,O=c1c(-c2ccc(F)cc2)c(-c2ccncc2)[nH]n1-c1ccc(Cl)cc1,103

# Target: IGF1R (human) (UniProt P08069)
# Sequence (P08069 whole entry, looked up): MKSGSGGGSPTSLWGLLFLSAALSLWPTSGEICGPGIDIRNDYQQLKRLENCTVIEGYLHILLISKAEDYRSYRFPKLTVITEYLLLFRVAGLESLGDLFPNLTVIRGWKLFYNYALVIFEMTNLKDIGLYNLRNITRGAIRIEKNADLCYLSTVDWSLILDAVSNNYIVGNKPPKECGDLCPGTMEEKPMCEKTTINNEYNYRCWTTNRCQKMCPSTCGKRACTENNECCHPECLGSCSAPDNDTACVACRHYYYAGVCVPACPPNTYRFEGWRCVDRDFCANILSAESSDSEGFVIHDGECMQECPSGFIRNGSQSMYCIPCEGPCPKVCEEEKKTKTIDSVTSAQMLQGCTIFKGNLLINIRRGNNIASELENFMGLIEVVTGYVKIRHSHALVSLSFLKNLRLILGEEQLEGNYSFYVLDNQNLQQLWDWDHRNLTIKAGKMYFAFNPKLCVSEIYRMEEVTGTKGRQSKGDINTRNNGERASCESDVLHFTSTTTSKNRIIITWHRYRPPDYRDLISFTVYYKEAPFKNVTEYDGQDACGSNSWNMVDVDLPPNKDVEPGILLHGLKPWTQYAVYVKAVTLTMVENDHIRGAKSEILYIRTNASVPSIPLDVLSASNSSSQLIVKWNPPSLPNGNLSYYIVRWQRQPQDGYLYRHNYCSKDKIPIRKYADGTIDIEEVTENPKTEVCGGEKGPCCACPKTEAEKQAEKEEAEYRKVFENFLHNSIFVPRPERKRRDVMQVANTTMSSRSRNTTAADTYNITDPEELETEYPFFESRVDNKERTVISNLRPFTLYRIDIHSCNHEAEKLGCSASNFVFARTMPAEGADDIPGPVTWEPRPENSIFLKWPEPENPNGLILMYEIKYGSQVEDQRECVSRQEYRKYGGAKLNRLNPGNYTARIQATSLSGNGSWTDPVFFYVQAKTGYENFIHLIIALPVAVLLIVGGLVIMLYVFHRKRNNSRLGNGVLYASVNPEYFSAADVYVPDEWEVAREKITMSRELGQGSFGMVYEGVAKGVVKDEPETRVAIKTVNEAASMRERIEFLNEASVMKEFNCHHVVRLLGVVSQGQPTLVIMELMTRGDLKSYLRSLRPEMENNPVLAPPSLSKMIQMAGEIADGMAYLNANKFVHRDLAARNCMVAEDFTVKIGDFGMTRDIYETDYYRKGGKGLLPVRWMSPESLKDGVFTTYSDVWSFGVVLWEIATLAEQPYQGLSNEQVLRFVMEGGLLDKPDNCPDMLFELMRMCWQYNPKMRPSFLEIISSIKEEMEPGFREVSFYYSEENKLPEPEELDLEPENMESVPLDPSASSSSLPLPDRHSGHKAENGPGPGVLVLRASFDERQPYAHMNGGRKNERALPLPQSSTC
# Experiment: as above
# Conditions: compound 0.5 µM
row,Structure (SMILES),residual activity [%]
1,O=c1[nH]c2ccccc2n1C1CCN(Cc2ccc(-c3nc4cc5[nH]cnc5cc4nc3-c3ccccc3)cc2)CC1,91.2

# Same assay, conditions: compound 0.5 µM; ATP 10 µM
row,Structure (SMILES),residual activity [%]
1,COc1cc2c(N3CCN(C(=O)Nc4ccc(OC(C)C)cc4)CC3)ncnc2cc1OCCCN1CCCCC1,97.7
2,O=c1c(-c2ccc(F)cc2)c(-c2ccncc2)[nH]n1-c1ccc(Cl)cc1,92.8

# Target: MARK3 (human) (UniProt P27448)
# Experiment: as above
# Conditions: compound 0.5 µM; ATP 10 µM
row,Structure (SMILES),residual activity [%]
1,N#Cc1c(NC(=O)c2cccc3ccccc23)sc2c1CCCC2,97.1
2,COc1cc2c(N3CCN(C(=O)Nc4ccc(OC(C)C)cc4)CC3)ncnc2cc1OCCCN1CCCCC1,103
3,O=c1[nH]c2ccccc2n1C1CCN(Cc2ccc(-c3nc4cc5[nH]cnc5cc4nc3-c3ccccc3)cc2)CC1,103
4,O=c1c(-c2ccc(F)cc2)c(-c2ccncc2)[nH]n1-c1ccc(Cl)cc1,87.2

# Target: SRPK1 (human) (UniProt Q96SB4)
# Sequence (Q96SB4 whole entry, looked up): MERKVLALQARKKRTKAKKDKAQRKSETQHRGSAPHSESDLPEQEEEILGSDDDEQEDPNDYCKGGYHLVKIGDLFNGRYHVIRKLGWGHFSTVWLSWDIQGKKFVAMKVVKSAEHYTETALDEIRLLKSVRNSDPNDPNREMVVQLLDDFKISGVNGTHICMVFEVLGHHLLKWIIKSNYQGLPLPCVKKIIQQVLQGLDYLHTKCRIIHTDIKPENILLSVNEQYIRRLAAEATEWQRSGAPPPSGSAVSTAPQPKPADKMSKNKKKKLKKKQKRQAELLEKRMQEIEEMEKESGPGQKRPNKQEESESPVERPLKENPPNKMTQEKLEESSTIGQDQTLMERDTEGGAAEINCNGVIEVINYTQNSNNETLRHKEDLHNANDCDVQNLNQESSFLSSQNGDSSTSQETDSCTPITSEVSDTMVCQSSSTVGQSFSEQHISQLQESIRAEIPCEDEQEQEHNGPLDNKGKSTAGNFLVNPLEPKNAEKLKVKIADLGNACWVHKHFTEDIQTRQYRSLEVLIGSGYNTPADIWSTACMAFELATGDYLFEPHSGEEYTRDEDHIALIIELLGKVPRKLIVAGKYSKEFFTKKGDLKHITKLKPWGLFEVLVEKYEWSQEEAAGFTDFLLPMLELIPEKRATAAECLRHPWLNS
# Experiment: as above
# Conditions: compound 0.5 µM; ATP 10 µM
row,Structure (SMILES),residual activity [%]
1,N#Cc1c(NC(=O)c2cccc3ccccc23)sc2c1CCCC2,102
2,COc1cc2c(N3CCN(C(=O)Nc4ccc(OC(C)C)cc4)CC3)ncnc2cc1OCCCN1CCCCC1,98.2
3,O=c1[nH]c2ccccc2n1C1CCN(Cc2ccc(-c3nc4cc5[nH]cnc5cc4nc3-c3ccccc3)cc2)CC1,106
4,O=c1c(-c2ccc(F)cc2)c(-c2ccncc2)[nH]n1-c1ccc(Cl)cc1,97.9

# Target: ULK1 (human) (UniProt O75385)
# Sequence (O75385 whole entry, looked up): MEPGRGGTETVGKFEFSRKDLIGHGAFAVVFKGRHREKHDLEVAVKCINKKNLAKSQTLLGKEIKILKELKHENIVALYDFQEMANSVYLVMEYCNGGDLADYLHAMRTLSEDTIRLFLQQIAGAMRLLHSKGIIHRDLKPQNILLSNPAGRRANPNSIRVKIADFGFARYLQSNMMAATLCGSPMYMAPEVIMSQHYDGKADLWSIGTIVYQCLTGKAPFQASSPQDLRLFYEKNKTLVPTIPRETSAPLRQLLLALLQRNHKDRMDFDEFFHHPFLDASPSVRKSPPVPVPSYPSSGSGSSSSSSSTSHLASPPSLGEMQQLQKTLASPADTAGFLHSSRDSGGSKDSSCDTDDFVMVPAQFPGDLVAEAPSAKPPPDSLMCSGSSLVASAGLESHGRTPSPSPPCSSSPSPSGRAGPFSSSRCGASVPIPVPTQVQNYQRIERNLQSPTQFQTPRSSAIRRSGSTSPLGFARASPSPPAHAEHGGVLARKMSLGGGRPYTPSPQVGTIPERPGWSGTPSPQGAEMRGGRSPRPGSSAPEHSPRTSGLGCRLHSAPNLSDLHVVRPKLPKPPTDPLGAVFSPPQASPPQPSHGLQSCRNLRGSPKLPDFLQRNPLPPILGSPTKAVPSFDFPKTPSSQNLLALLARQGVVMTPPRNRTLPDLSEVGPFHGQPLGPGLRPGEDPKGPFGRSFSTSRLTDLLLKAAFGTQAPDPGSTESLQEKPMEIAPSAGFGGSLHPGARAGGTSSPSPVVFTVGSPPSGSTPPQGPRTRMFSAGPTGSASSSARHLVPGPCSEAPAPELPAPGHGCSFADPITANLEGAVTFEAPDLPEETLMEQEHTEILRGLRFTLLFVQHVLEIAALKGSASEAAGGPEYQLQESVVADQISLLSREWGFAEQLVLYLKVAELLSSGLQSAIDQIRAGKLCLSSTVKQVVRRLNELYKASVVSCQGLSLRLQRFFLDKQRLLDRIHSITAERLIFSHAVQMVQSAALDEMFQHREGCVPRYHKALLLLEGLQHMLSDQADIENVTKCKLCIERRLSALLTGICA
# Experiment: as above
# Conditions: compound 0.5 µM; ATP 10 µM
row,Structure (SMILES),residual activity [%]
1,N#Cc1c(NC(=O)c2cccc3ccccc23)sc2c1CCCC2,99.8
2,COc1cc2c(N3CCN(C(=O)Nc4ccc(OC(C)C)cc4)CC3)ncnc2cc1OCCCN1CCCCC1,92.1
3,O=c1[nH]c2ccccc2n1C1CCN(Cc2ccc(-c3nc4cc5[nH]cnc5cc4nc3-c3ccccc3)cc2)CC1,96.7
4,O=c1c(-c2ccc(F)cc2)c(-c2ccncc2)[nH]n1-c1ccc(Cl)cc1,103

# Target: PBK (human) (UniProt Q96KB5)
# Experiment: as above
# Conditions: compound 0.5 µM; ATP 10 µM
row,Structure (SMILES),residual activity [%]
1,N#Cc1c(NC(=O)c2cccc3ccccc23)sc2c1CCCC2,116
2,COc1cc2c(N3CCN(C(=O)Nc4ccc(OC(C)C)cc4)CC3)ncnc2cc1OCCCN1CCCCC1,98
3,O=c1[nH]c2ccccc2n1C1CCN(Cc2ccc(-c3nc4cc5[nH]cnc5cc4nc3-c3ccccc3)cc2)CC1,103
4,O=c1c(-c2ccc(F)cc2)c(-c2ccncc2)[nH]n1-c1ccc(Cl)cc1,87.7

# Target: CDC42BPB (human) (UniProt Q9Y5S2)
# Experiment: as above
# Conditions: compound 0.5 µM; ATP 10 µM
row,Structure (SMILES),residual activity [%]
1,N#Cc1c(NC(=O)c2cccc3ccccc23)sc2c1CCCC2,98
2,COc1cc2c(N3CCN(C(=O)Nc4ccc(OC(C)C)cc4)CC3)ncnc2cc1OCCCN1CCCCC1,100
3,O=c1[nH]c2ccccc2n1C1CCN(Cc2ccc(-c3nc4cc5[nH]cnc5cc4nc3-c3ccccc3)cc2)CC1,101
4,O=c1c(-c2ccc(F)cc2)c(-c2ccncc2)[nH]n1-c1ccc(Cl)cc1,103

# Target: PLK2 (human) (UniProt Q9NYY3)
# Sequence (Q9NYY3 whole entry, looked up): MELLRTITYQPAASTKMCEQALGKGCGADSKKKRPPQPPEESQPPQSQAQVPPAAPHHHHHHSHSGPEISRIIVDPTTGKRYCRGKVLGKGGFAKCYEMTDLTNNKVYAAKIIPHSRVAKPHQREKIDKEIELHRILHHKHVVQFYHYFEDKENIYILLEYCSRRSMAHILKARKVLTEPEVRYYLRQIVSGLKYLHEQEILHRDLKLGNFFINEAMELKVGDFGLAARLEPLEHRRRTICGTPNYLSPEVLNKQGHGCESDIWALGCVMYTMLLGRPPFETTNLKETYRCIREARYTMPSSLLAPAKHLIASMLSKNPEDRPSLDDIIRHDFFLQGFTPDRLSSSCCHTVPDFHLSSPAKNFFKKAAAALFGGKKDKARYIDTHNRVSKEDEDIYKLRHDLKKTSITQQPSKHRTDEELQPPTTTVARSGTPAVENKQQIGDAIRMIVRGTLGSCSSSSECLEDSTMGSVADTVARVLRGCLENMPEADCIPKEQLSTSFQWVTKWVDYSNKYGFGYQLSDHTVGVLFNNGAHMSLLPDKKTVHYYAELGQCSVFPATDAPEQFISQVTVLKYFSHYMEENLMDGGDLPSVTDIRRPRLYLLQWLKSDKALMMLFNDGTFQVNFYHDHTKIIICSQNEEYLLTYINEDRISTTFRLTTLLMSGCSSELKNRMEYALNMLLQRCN
# Experiment: as above
# Conditions: compound 0.5 µM; ATP 10 µM
row,Structure (SMILES),residual activity [%]
1,N#Cc1c(NC(=O)c2cccc3ccccc23)sc2c1CCCC2,101
2,COc1cc2c(N3CCN(C(=O)Nc4ccc(OC(C)C)cc4)CC3)ncnc2cc1OCCCN1CCCCC1,99.8
3,O=c1[nH]c2ccccc2n1C1CCN(Cc2ccc(-c3nc4cc5[nH]cnc5cc4nc3-c3ccccc3)cc2)CC1,95.5
4,O=c1c(-c2ccc(F)cc2)c(-c2ccncc2)[nH]n1-c1ccc(Cl)cc1,92.5

# Target: CSNK2A1 (human) (UniProt P68400)
# Experiment: as above
# Conditions: compound 0.5 µM; ATP 10 µM
row,Structure (SMILES),residual activity [%]
1,N#Cc1c(NC(=O)c2cccc3ccccc23)sc2c1CCCC2,101
2,COc1cc2c(N3CCN(C(=O)Nc4ccc(OC(C)C)cc4)CC3)ncnc2cc1OCCCN1CCCCC1,102
3,O=c1[nH]c2ccccc2n1C1CCN(Cc2ccc(-c3nc4cc5[nH]cnc5cc4nc3-c3ccccc3)cc2)CC1,94.3
4,O=c1c(-c2ccc(F)cc2)c(-c2ccncc2)[nH]n1-c1ccc(Cl)cc1,95.3

# Target: LRRK2 (human) (UniProt Q5S007)
# Experiment: as above
# Conditions: compound 0.5 µM; ATP 10 µM
row,Structure (SMILES),residual activity [%]
1,N#Cc1c(NC(=O)c2cccc3ccccc23)sc2c1CCCC2,100
2,COc1cc2c(N3CCN(C(=O)Nc4ccc(OC(C)C)cc4)CC3)ncnc2cc1OCCCN1CCCCC1,123
3,O=c1[nH]c2ccccc2n1C1CCN(Cc2ccc(-c3nc4cc5[nH]cnc5cc4nc3-c3ccccc3)cc2)CC1,103
